Results as given in patent publication US4280001A, “Biologically pure culture” (priority 1976, dated 1981).
Bridge positions count the residues as written; N and C are the ends. Square brackets hold non-standard residues; d marks the D form. Peptide text beside a SMILES is read from it. * marks the point of attachment. Ileψ(thiazoline)Cys = CC[C@H](C)[C@H](N)C1=N[C@H](C(=O)*)CS1; dOrn = NCCC[C@@H](N)C(=O)O

Tests used:
Type in all cases: cell-based
[1] = system: Staphylococcus aureus ATCC 6538 resistant to neomycin; assay: MIC against resistant Staphylococcus aureus strains (Table III); settings: S. aureus ATCC 6538 resistant to neomycin
Source text: (§1) The new antibiotic substance is active also against microorganism strains which are resistant to other commonly used antibiotics.

[2] = system: Staphylococcus aureus ATCC 6538 resistant to erythromycin; assay: microbe, parasite or virus in culture; settings: ATCC6538
Source text: as §1

[3] = system: Staphylococcus aureus Tour resistant to streptomycin; assay: MIC against resistant Staphylococcus aureus strains (Table III); settings: S. aureus Tour resistant to streptomycin
Source text: as §1

[4] = system: Staphylococcus aureus ATCC 6538 resistant to bacitracin; assay: microbe, parasite or virus in culture; settings: ATCC6538
Source text: as §1

[5] = system: Staphylococcus aureus ATCC 6538 resistant to cephaloridine; assay: microbe, parasite or virus in culture; settings: ATCC6538
Source text: as §1

[6] = system: Staphylococcus aureus ATCC 6538 resistant to lincomycin; assay: microbe, parasite or virus in culture; settings: ATCC6538
Source text: as §1

[7] = system: Staphylococcus aureus ATCC 6538 resistant to chloramphenicol; assay: microbe, parasite or virus in culture; settings: ATCC6538
Source text: as §1

[8] = system: Staphylococcus aureus ATCC 6538 resistant to penicillin; assay: microbe, parasite or virus in culture; settings: ATCC6538
Source text: as §1

[9] = system: Staphylococcus aureus ATCC 6538 resistant to tetracycline; assay: MIC against resistant Staphylococcus aureus strains (Table III); settings: ATCC6538
Source text: as §1

[10] = system: Staphylococcus aureus ATCC 6538 resistant to kanamycin; assay: as above; settings: ATCC6538
Source text: as §1

[11] = system: Staphylococcus aureus ATCC 6538 resistant to rifampicin; assay: as above; settings: ATCC6538
Source text: as §1

## neomycin
[1]
  MIC: > 100 µg/mL

## CC[C@H]1OC(=O)[C@H](C)[C@@H](O[C@H]2C[C@@](C)(OC)[C@@H](O)[C@H](C)O2)[C@H](C)[C@@H](O[C@@H]2O[C@H](C)C[C@H](N(C)C)[C@H]2O)[C@](C)(O)C[C@@H](C)C(=O)[C@H](C)[C@@H](O)[C@]1(C)O [erythromycin]
[2]
  MIC: > 100 µg/mL

## [H]/N=C(/N)N[C@H]1[C@H](O)[C@@H](O)[C@H](O[C@@H]2O[C@@H](C)[C@](O)(C=O)[C@H]2O[C@@H]2O[C@@H](CO)[C@H](O)[C@@H](O)[C@@H]2NC)[C@@H](N/C(N)=N\[H])[C@@H]1O [streptomycin]
[3]
  MIC: > 100 µg/mL

## CC[C@H](C)[C@H](N)C1=N[C@H](C(=O)N[C@@H](CC(C)C)C(=O)N[C@H](CCC(=O)O)C(=O)N[C@H](C(=O)N[C@H]2CCCCNC(=O)[C@H](CC(N)=O)NC(=O)[C@@H](CC(=O)O)NC(=O)[C@H](Cc3cnc[nH]3)NC(=O)[C@@H](Cc3ccccc3)NC(=O)[C@H]([C@@H](C)CC)NC(=O)[C@@H](CCCN)NC2=O)[C@@H](C)CC)CS1 [bacitracin] ({Ileψ(thiazoline)Cys}-L[dE]IK[dOrn]I[dF]H[dD]N; lactam 4-C)
[4]
  MIC: > 100 µg/mL

## O=C(Cc1cccs1)N[C@@H]1C(=O)N2C(C(=O)[O-])=C(C[n+]3ccccc3)CS[C@H]12 [cephaloridine]
[5]
  MIC: > 100 µg/mL

## CCC[C@@H]1C[C@@H](C(=O)N[C@@H]([C@H]2O[C@H](SC)[C@H](O)[C@@H](O)[C@H]2O)[C@@H](C)O)N(C)C1 [lincomycin]
[6]
  MIC: > 100 µg/mL

## O=C(N[C@H](CO)[C@H](O)c1ccc([N+](=O)[O-])cc1)C(Cl)Cl [chloramphenicol]
[7]
  MIC: > 100 µg/mL

## CC1(C)S[C@@H]2[C@H](NC(=O)Cc3ccccc3)C(=O)N2[C@H]1C(=O)O [penicillin]
[8]
  MIC: > 100 µg/mL

## CN(C)C1C(=O)C(C(N)=O)=C(O)C2(O)C(=O)C3=C(O)c4c(O)cccc4C(C)(O)C3CC12 (centres unmarked) [tetracycline]
[9]
  MIC: > 100 µg/mL

## NC[C@H]1O[C@H](O[C@H]2[C@H](O)[C@@H](O[C@H]3O[C@H](CO)[C@@H](O)[C@H](N)[C@H]3O)[C@H](N)C[C@@H]2N)[C@H](O)[C@@H](O)[C@@H]1O [kanamycin]
[10]
  MIC: > 100 µg/mL

## CO[C@H]1/C=C/O[C@@]2(C)Oc3c(C)c(O)c4c(O)c(c(/C=N/N5CCN(C)CC5)c(O)c4c3C2=O)NC(=O)/C(C)=C\C=C\[C@H](C)[C@H](O)[C@@H](C)[C@@H](O)[C@@H](C)[C@H](OC(C)=O)[C@@H]1C [rifampicin]
[11]
  MIC: > 100 µg/mL
